# Values quoted from earlier work in patent EP0413839A1, “GHRH analogs” (The Administrators of The Tulane Educational Fund, priority 1989, dated 1991).
# No end group written: not given here.
# Conditions: percent of the potency of hGRF
row,Substance,potency of hGRF
1,hGRF(1-29)OH,12.6%
2,"hGRF(1-27)-NH₂ (YADAIFTNSYRKVLGQLSARKLLQDIM-NH2; UniProt P01286 32-58, looked up, fragment) [shortened hGRF fragment with amidated C-terminus]",1.12%
3,"hGRF(1-23)-NH₂ (YADAIFTNSYRKVLGQLSARKLL-NH2; UniProt P01286 32-54, looked up, fragment) [shortened hGRF fragment with amidated C-terminus]",0.24%
4,"hGRF(1-37)-NH₂ (YADAIFTNSYRKVLGQLSARKLLQDIMSRQQGESNQE-NH2; UniProt P01286 32-68, looked up, fragment) [fragment of human growth hormone releasing factor terminated with an amide group]",at least 50%
